Experimental data from patent US12569554B2, “Triterpene saponin analogues” (priority 2017, dated 2026).
Where two headings read alike, the source gives them in different places.

Experiments:
humans = conditions: cited from earlier work
mice [1] = experiment: Adacel pharm/tox study, serology with TiterQuil-1055 or QS-21; format: in vivo; conditions: for augmentation of antibody levels compared to immunization with Adacel alone: adjuvant given with Adacel
Description: (§1) Adacel doses containing 1, 0.3, and 0.1 mcg of pertussis toxin per mouse were administered subcutaneously (SC, with no immunological adjuvant), using 2 vaccinations 4 weeks apart, resulting in a mean of 1,618 mcg, 898 mcg, and 107 mcg respectively of anti-PT antibody per ml of serum drawn 2 weeks after the second vaccination. The 0.1 mcg dose was indistinguishable from unvaccinated controls (96 mcg/ml). A 0.5 mcg dose of Adacel was selected for a pharmacology/toxicology (pharm/tox) study. The serological results for this study are summarized in FIG. 3 of the present application.
(§2) A pharm/tox study was conducted in 7 groups of 5 mice: 1) PBS alone, 2) 50 mcg TiterQuil-1055, 3) 20 mcg QS-21, 4) Adacel 2.5 mcg pertussis toxin (1/5 the human dose), 5) Adacel+QS-21 (20 mcg QS-21), 6) Adacel+TiterQuil-1055 (50 mcg), 7) Adacel+TiterQuil-1055 (50 mcg). Mice were vaccinated SC on days 1 and 15, weighed daily, and bled and sacrificed on day 22, except for group 7 which was sacrificed on day 29. […] Histopathology of 33 different tissues was performed on all mice. Detected abnormalities were restricted to the liver. […] This abnormality was short lived and was no detected in group 7, which was sacrificed one week after groups 1-6.

[2] = Companion toxicity study, body mass; format: in vivo, mice; conditions: three days after immunization
Description: (§3) Natural and synthetic QS-21 (SQS-21 or SAPONEX®) and a variety of analogs were tested for hemolytic activity.

Stability at 37° C. = format: physicochemical; conditions: for degraded: after two weeks at 37° C.
Description: as §3

Hemolytic assay = format: cell-based
Description: as §3

mice [3] = experiment: Pilot pharmacology/toxicology study: blood chemistry, hematology, histopathology; format: in vivo; conditions: 50 mcg TiterQuil-1055, 20 mcg QS-21, Adacel 2.5 mcg pertussis toxin, alone or combined; for changes in blood chemistry or hematology results: SC days 1 and 15; for liver histopathology, hepatocellular cytoplasmic vacuolization: SC days 1 and 15, sacrificed day 22
Description: as §2

[4] = format: in vivo, mice; conditions: for body weight loss: 50 mcg TiterQuil-1055, 20 mcg QS-21
Description: as §1, §2

mice [5] = experiment: Engerix-B immunogenicity, anti-HBsAg antibody; format: in vivo
Description: Experiments were conducted with Engerix-B (HBV adult vaccine) in groups of 10 mice. Initially 3 mcg, 1 mcg, 0.3 mcg, 0.1 mcg, and 0.03 mcg Engerix-B doses per mouse were tested.

[6] = Engerix-B study, body weight; format: in vivo, mice
[7] = groups of 5 mice, 2 weeks after second SC immunization

Compound: QS-21 [reference compound]
- tolerated dose in cancer patients (humans; cancer patients, above it local and systemic side effects): 100 to 150 µg
- maximum dose for healthy patients (humans; healthy patients): ~50 µg
- highest practical tolerable dose (humans; well (non-cancer) adult and child recipients): 25 to 50 µg
- augmentation of antibody levels compared to immunization with Adacel alone (mice [1]; [7]): 10 fold
- body mass lost on average ([2]; 20 mcg QS-21): 8-10%
- degraded (Stability at 37° C.): 20%
- hemolytic activity (Hemolytic assay): highly hemolytically active
- changes in blood chemistry or hematology results (mice [3]): No changes
- liver histopathology, hepatocellular cytoplasmic vacuolization (mice [3]): Mild vacuolar changes
- body weight loss [4]: 8-9%

Compound: CC1O[C@@H](OC2C(O)[C@@H](NC(=O)CCCCCCCCCCC(=O)O)C(CO)O[C@H]2OC(=O)[C@]23CCC(C)(C)CC2C2=CCC4C5(C)CC[C@H](O)C(C)(C=O)C5CCC4(C)C2(C)CC3O)C(O)C(O)[C@H]1O[C@@H]1OC[C@@H](O)C(O)C1O (stereo partly shown) [Compound I-4]
- serologic effect (mice [5]; 10 mcg TiterQuil-1055 mixed with 0.3 mcg Engerix-B): no serologic effect
- increase in antibody levels compared to Engerix-B alone (mice [5]; 30 mcg TiterQuil-1055 mixed with 0.3 mcg Engerix-B): > 6 fold
- increase in antibody levels compared to Engerix-B alone (mice [5]; 100 mcg TiterQuil-1055 mixed with 0.3 mcg Engerix-B): 5 fold
- antibody response at higher adjuvant doses (mice [5]; TiterQuil-1055 doses above 50 mcg per mouse): Lack of antibody increase or decreasing responses
- antibody levels 2 weeks later (mice [1]; Adacel with TiterQuil-1055, a further 2 weeks later): further increased
- antibody levels (mice [1]; groups of 5 mice, 2 weeks after second SC immunization, Adacel alone or Adacel with TiterQuil-1055): 52,344
- augmentation of antibody levels compared to immunization with Adacel alone (mice [1]; [7]): 70 fold
- body mass gained on average [2]: 5%
- degraded (Stability at 37° C.): without detectable degradation
- stability (Stability at 37° C.; compared with QS-21): increased stability
- hemolytic activity (Hemolytic assay): much lower or undetectable hemolytic activity
- changes in blood chemistry or hematology results (mice [3]): No changes
- liver histopathology, hepatocellular cytoplasmic vacuolization (mice [3]): No changes at all
- weight loss ([6]; 30 mcg TiterQuil-1055 dose): No weight loss
- weight loss ([6]; 100 mcg TiterQuil-1055 dose): 4%
- weight loss ([6]; 300 mcg TiterQuil-1055 dose): 5%
- weight loss ([4]; 50 mcg TiterQuil-1055, 20 mcg QS-21, Adacel 2.5 mcg pertussis toxin, alone or combined, SC days 1 and 15, weighed daily): no other mice
- body weight loss [4]: No weight loss
